Data from PubChem BioAssay (NCI).
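Interpolation was linear, between the two tested concentrations surrounding the appropriate level; five concentrations were tested over 48 hours in 96-well plates. Abbreviation: GI50, concentration required for 50% inhibition of growth. The concentration for full growth arrest is given as TGI.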

The compounds below were run on UO-31 renal (assay: NCI tumour cell line growth inhibition, 48 h).
With `COc1ccc(Nc2nnc(-c3cc(O)ccc3O)s2)cc1` the GI50 was 47.3 µM and the TGI was > 50 µM.
For `Cc1ccc(/C=C/C(=O)c2sc(-c3nc(C)c(C(=O)/C=C/c4ccc(C)cc4)s3)nc2C)cc1`, the TGI was > 100 µM.
For `O=C1/C(=C/c2ccc(Cl)cc2)CCC1CCN1CCOCC1` (stereo unspecified), the TGI was > 100 µM.
In the case of `Cn1cc(-c2csc(-c3c[nH]c4ccc(F)cc34)n2)c2cnccc21`, the GI50 is reported as 1.42 µM and the TGI is reported as 2.73 µM.
`CCC[CH2][Sn]([Cl])([CH2]CCC)[CH2]CCC` gave a GI50 of 0.16 µM and a TGI of 0.312 µM.
With `O=c1ccn([C@H]2CSC[C@@H](CO)C2)c(=O)[nH]1` the TGI was > 100 µM.
With `COc1cc(-n2cc(-c3ccc(F)cc3)[nH]c2=O)cc(OC)c1OC` the GI50 was > 100 µM and the TGI was > 100 µM.
For `C1CN2CCN3CCN4CCN1[P+]243`, the TGI was > 100 µM.

Each compound was assayed on NCI-H522 lung (assay: NCI tumour cell line growth inhibition, 48 h).
`CN(C)CC[PH+](c1ccccc1)c1ccccc1.CN(C)CC[PH+](c1ccccc1)c1ccccc1.[Cl-].[Pd+2]` was tested, and the GI50 was 73.6 µM and the TGI was > 100 µM.
`Cc1nn(-c2ccc(Cl)cc2)c2nc3c(nc12)C(=O)c1ccccc1-3` was tested, and the GI50 was > 100 µM and the TGI was > 100 µM.
For `O=C(c1ccccc1Br)C(F)(F)F`, the TGI was > 100 µM.
For `COc1ccc(NC(=O)/C(Cc2cc(=O)oc3cc(O)ccc23)=N\NC(C)(C)C)c(OC)c1`, the TGI was > 100 µM.
For `O=C1/C(=C/c2ccc3c(c2)OCO3)SC2C=Nc3ccccc3N12` (stereo unspecified), the TGI was > 100 µM.
With `CCOc1ccc(NC(=O)C(=O)CC(=O)c2c(C)n([O-])c3ccccc3[n+]2=O)cc1` the TGI was > 100 µM.
For `CCCC(=O)Nc1cc2c3c(c1)CCCN3CCC2`, the TGI was > 10 µM.
With `Cc1cc(Cl)ccc1NC(=O)C(=O)Cc1nc2ccccc2o1` the TGI was > 100 µM.
`OCC1OC(c2nc(C3=NCCCN3)cs2)C(O)C1O` (stereo unspecified) was tested, and the TGI was > 100 µM.
For `O=C1C=CC(=O)c2cc3cc(CBr)ccc3cc21`, the GI50 was 4.33 µM and the TGI was > 25.8 µM.
With `CCC(C)COC(=O)c1ccc(N=Cc2ccc(C=Nc3ccc(C(=O)OCC(C)CC)cc3)cc2)cc1` (stereo unspecified) the TGI was > 100 µM.
`COc1cc(F)ccc1-c1ncnc(Nc2cccc(CS(C)(=N)=O)c2)n1` (stereo unspecified) showed a GI50 of 1.6 µM and a TGI of 6.34 µM.
For `Cc1cc(N(CCC#N)CCC#N)ccc1N=Nc1ccc(C(=O)O)cc1`, the TGI was > 100 µM.
For `[Cl][Hg][c]1cc[c]([Hg][Cl])o1`, the GI50 was 0.367 µM and the TGI was 1.69 µM.
`CN(C)CC1CCCC/C1=N/OC(=O)c1ccc(Cl)cc1` (stereo unspecified) was tested, and the TGI was > 100 µM.
For `COc1cccc(C2=NC(C(C)C)CO2)c1` (stereo unspecified), the TGI was > 100 µM.
For `O=C1/C(=C/c2cccc(Cl)c2Cl)N=C(c2ccccc2)N1C1CC1`, the GI50 was 19.8 µM and the TGI was > 50 µM.
With `COc1ccc(-c2nn(-c3ccc(NC(=O)c4ccc(Cl)c(Cl)c4)cc3)cc2-c2ccncc2)cc1Cl` the TGI was > 46.3 µM.
With `CN(C)C(n1cc2c(c1)-c1ccc(Cl)cc1C(c1ccccc1F)=NC2)n1cc2c(c1)-c1ccc(Cl)cc1C(c1ccccc1F)=NC2` the TGI was > 100 µM.
In the case of `CCCc1nc(NC#N)nc(C(=O)Nc2ccccc2)c1CC`, the TGI is reported as > 100 µM.
In the case of `O=C(CCc1n[nH]c(=S)o1)Nc1ccccc1C(F)(F)F`, the TGI is reported as > 100 µM.
`COc1cc2c(cc1OCCCNC(=O)c1cccc3c(=O)c4ccccc4[nH]c13)N=C[C@@H]1CCCN1C2=O` was tested, and the TGI was > 33.6 µM.
With `Cc1ccc(NC(=O)CCc2cc(C(C)(C)C)nc(=S)[nH]2)cc1C` the TGI was > 100 µM.
`Cc1[nH]c2ccccc2c1C(=O)/C=C/c1ccccc1O` was tested, and the TGI was > 100 µM.
`O=C(Nc1nc(=S)c2c(ncn2CCOC(=O)c2ccccc2)[nH]1)c1ccccc1` showed a TGI of 68.1 µM.
`CCOc1ccc(NC(=O)CC#N)cc1` was tested, and the TGI was > 100 µM.
`O=C(/C=C/c1cccc2ccccc12)c1ccccc1Cl` gave a TGI of 27.5 µM.
With `COc1ccc(Nc2nnc(-c3cc(O)ccc3O)s2)cc1` the GI50 was 16.1 µM and the TGI was > 50 µM.
In the case of `Cc1ccc(/C=C/C(=O)c2sc(-c3nc(C)c(C(=O)/C=C/c4ccc(C)cc4)s3)nc2C)cc1`, the TGI is reported as > 100 µM.
Work on `Cn1cc(-c2csc(-c3c[nH]c4ccc(F)cc34)n2)c2cnccc21` yielded a GI50 of 1.79 µM and a TGI of 3.29 µM.
For `CCC[CH2][Sn]([Cl])([CH2]CCC)[CH2]CCC`, the GI50 was 0.116 µM and the TGI was 0.27 µM.
For `O=c1ccn([C@H]2CSC[C@@H](CO)C2)c(=O)[nH]1`, the TGI was > 100 µM.
With `COc1cc(-n2cc(-c3ccc(F)cc3)[nH]c2=O)cc(OC)c1OC` the GI50 was > 100 µM and the TGI was > 100 µM.
`C1CN2CCN3CCN4CCN1[P+]243` was tested, and the TGI was > 100 µM.
